Patent publication US20230248759A1, “ORAL RINSE COMPOSITIONS FOR ALLEVIATING XEROSTOMIA COMPRISING POLYETHYLENE GLYCOL DERIVATIVES” (SunBio Inc., priority 2021, published 2023)

Tested on: cultured cells (L-929)
Test: Cytotoxicity test, liquid sample (dilution type), ISO 10993
Assay type: cell-based
Conditions: L-929, liquid test, 0.025 g/ml in media for test material
Method: The cytotoxicity test is a test to confirm the safety of the composition according to the present invention, and the presence and degree of a cytotoxic reaction in cultured cells (L-929) was evaluated. A good laboratory practice (GLP) institution was commissioned to perform the test according to each test method presented in ISO 10993.
5-2. Test Method of Liquid Sample: A liquid test solution was prepared in which a dilution solution (2× E-MEM+10% FBS) and the liquid test material were combined/diluted in a 1:1 ratio. The culture medium of cell L-929 was removed from the plate well, replaced with 1 mL of test solution and control medium (diluent), and then the cells were cultured. During culturing, microscopic examinations were carried out every 24, 48, 72±4 hours to evaluate cytotoxicity. Cadmium chloride (100 uM CdCl2) as a positive control and E-MEM+5% FBS as a negative control were also used in the test.
As the evaluation criteria of the cytotoxicity test, a score of 0 to 4 was recorded by evaluating the morphological change of cells and the degree of change in viable cells according to lysis or separation. Scores 3 and 4 were judged to be cytotoxic, and scores of 1 and 2 were judged to be non-cytotoxic.

[Cl][Cd][Cl] [Positive Control, Cadmium chloride]
0/0/0: Cytotoxicity Score 24 hr (24 hr) | Cytotoxicity Score 48 hr (48 hr) | Cytotoxicity Score 72 hr (72 hr)
